From patent US20240041922A1, “METHODS AND COMPOSITIONS” (Monash University, priority 2020, published 2024) come the findings set out here.

Entries after “also recorded” stand apart in the source; their conditions may differ. Where two headings read alike, the source gives them in different places.

One assay relates to C2C12 myoblasts. Nature of the assay: C2C12 myoblast proliferation (EdU incorporation). Type of assay: cell-based, mouse. The procedure:
Larvae: Labelling and detection was carried out as previously described (Nguyen, P. D. et al. Muscle stem cells undergo extensive clonal drift during tissue growth via Meox1-mediated induction of G2 cell-cycle arrest. […] Cell culture: Cells were incubated for 1 h in media supplemented with 10 μM EdU. […] Cells were processed using the Click-iTTM EdU Alexa FluroTM 647 imaging Kit (Thermo Fisher) following the manufacturer's protocol. The mouse muscle cell line […]. Serial passaging and differentiation of myogenic cells isolated from dystrophic mouse muscle. Nature 270, 725 (1977) were cultured in growth media (Dulbecco's Modified Eagle Medium (4.5 g/l D-Glucose, No L Glutamine, No Sodium Pyruvate (Gibco))+20% Fetal Bovine Solution-One Shot (Gibco)+1% Glut Max 100x (Gibco)). Cells were maintained at 37° C., 5% CO2. Cells at 70% confluence, passage 8 were extracted from T75 flasks with 0.025% Tryspin EDTA (Gibco), neutralised in growth media, spun at 180×g for 5 min to pellet cells. The cells were then resuspended in 10 ml of fresh growth media. 500 μl of cells were plated on a 8-well on cover glass II (Sarstedt) chamber slide at a density of 1×10^3 cells/ml. Cells were left 4 h at 37° C. to re-attach. For drug treatments, the media were supplemented with appropriate doses and cultured for 6 h.

A further assay concerns PAX7+ satellite cells. The experiment in a line: Primary mouse myoblast mono- and co-cultures, PAX7+ satellite cell proliferation (EdU). Type of assay: cell-based. The following applies: for satellite cell proliferation on supplementation: myoblast monoculture (MB) and MB+3T3 co-culture, 24 h. Here is the method: Larvae: Labelling and detection was carried out as previously described (Nguyen, P. D. et al. Muscle stem cells undergo extensive clonal drift during tissue growth via Meox1-mediated induction of G2 cell-cycle arrest. […] Cell culture: Cells were incubated for 1 h in media supplemented with 10 μM EdU. […] Cells were processed using the Click-iTTM EdU Alexa FluroTM 647 imaging Kit (Thermo Fisher) following the manufacturer's protocol. For isolation of primary mouse myoblasts, limb skeletal muscle from E17.5 C57/BL6J mice were minced and digested in 0.125% Trypsin at 37° C. for 20 min. […] Myoblasts were again depleted for fibroblasts prior to co-culturing on gelatin-coated 48 well plates in DMEM+20% FBS+10% L929-conditioned medium. 100,000 myoblasts were plated with either 7,500 MafB/c-Maf deficient (Maf-DKO) macrophages (Aziz, A., Soucie, E., Sarrazin, […]. MafB/c-Maf deficiency enables self-renewal of differentiated functional macrophages. […] For drug treatments, the media were supplemented with appropriate doses and cultured for 24 h.

The test system of a further assay is rectus femoris muscle. The following applies: for muscle architecture / regenerated muscle area: delivered in fibrin hydrogel, 10 days post treatment. The procedure:
Injury: male C57BL/6J mice aged between 10-12 weeks were anesthetised and shaved on the hind left leg. A unilateral incision measuring approximately 1 cm was made exposing the underlying fascia. The left hind limb was extended and exteriorised via the incision site by retracting the surrounding tissue. A 3×4 mm full thickness segment of the rectus femoris muscle was removed. Directly after, the injury site was filled with fibrin hydrogel with or without 200 ng or 500 ng of hrNAMPT(1) (hydrogel components; 40 μl, 8 mg/ml human fibrinogen (FIB3, Enzyme Research Laboratories), 4 U/ml bovine thrombin (T4648, Sigma), 5 mM CaCl2, 17 μg/ml of aprotinin (ab146286, Abcam)) which polymerized in the defect. Then, the soft tissue was closed with stitches.
Histology: 10 days after treatment, animals were sacrificed and the wounds were harvested for histological analysis. The defect site and associated proximal and distal segment of the quadriceps muscle (including the rectus femoris, vastus medialis and vastus lateralis) were excised and embedded. Histological analysis was performed on serial paraffin sections (4 μm sections collected passing the central portion of the wound). Multiple sections were stained with Masson's Trichrome (to detect collagen deposition) and the extent of fibrosis (represented by a blue stain) was measured by histomorphometric analysis using ImageJ software (version 1.51h, National Institutes of Health, USA). To maintain uniformity between samples, the length of the vastus medialis taken at multiple depths ranging from 1.0 mm-3.0 mm serves as a reference between tissue sections to determine the depth of sectioning. For fibrotic quantification, average muscle fibrosis area at each depth was scored and normalised with the area of the rectus femoris. Total area of muscle is determined by calculating the average area of rectus femoris at each depth.
Immune cell profiling and PAX7^+ cell quantification with flow cytometry: 4, 6 or 8 days after treatment with either 0.5 μg of hrNAMPT(1) delivered by fibrin hydrogel or control fibrin hydrogel only, mice were euthanised via CO2 asphyxiation. The defect site and associated proximal and distal segment of the quadricep muscles were isolated and placed into 890 μl of complete RPMI (with 10% FBS and 2 mM Glutamax, Life Technologies). The tissue was minced with surgical scissors and 100 μl of 10 mg/ml Collagenase II (Sigma-Aldrich) and 10 μl of 10 mg/ml DNAse I (Biolabs), while 100 μl of dispase II (10 mg/ml) was added into the digestion for PAX7 acquisition. The mixture was vortexed and incubated at 37° C. for 45 min. The collagenase was then inactivated with 500 μl ice-cold PBS, 5% FBS, 5 mM EDTA. The mixture was strained subsequently through 70 μm and 40 μm filters. The cell suspension was further diluted with 1 ml complete RPMI and centrifuged for 10 min at 300× g. The supernatant was discarded and the pellet was resuspended in 250 μl complete RPMI and aliquoted into wells of a 96-well U bottom plate for antibody staining. The cell solutions were centrifuged, supernatant discarded, and washed with PBS. The cell viability stain used was 100 μl of Zombie Aqua (Biolegend) Live-Dead dye diluted in PBS (1:400 dilution) and incubated for 30 min at 4° C. The cells were then blocked with FcX (anti-CD16/32 antibodies, Biolegend, 1 μg/ml) flow cytometry buffer (PBS, 5% FBS). The cells were kept for 20 min at 4° C., washed with flow cytometry buffer and centrifuged. […]

Assay [1] deals with wound-resident muscle stem cells. The experiment in a line: Larval zebrafish needle stab muscle injury, wound site proliferation (EdU). The format is in vivo. Here is the method: 4dpf larvae were anaesthetized in 0.01% tricaine (MS-222) (Sigma-Aldrich) in Ringer's solution. Mechanical injures were targeted either to the dorsal or ventral myotome above the cloaca when the larvae is oriented dorsal to the top, anterior to the left. Needle-stick injury was carried out as previously described (Gurevich, D. B. el al. Asymmetric division of clonal muscle stem cells co-ordinate muscle regeneration in vivo. Science 353 6295 aad9969 (2016)). Briefly, the myotome was subjected to a single 30-gauge needle puncture that generates an extensive injury with many damaged muscle fibres. For laser-induced injury, anaesthetised larvae were mounted in a thin layer of 1% low-melt agarose in Ringer's solution. Injuries were carried out using a UV-nitrogen laser pulsed through a coumarin 440 nm dye cell coupled to a Zeiss Axioplan microscope (MicroPoint Laser System, Andor Technology). On average a laser injury required pulses for 5-10 sec from laser beams focused through a 40× water immersion objective. For time-lapse analysis of the immediate response to injury, muscle fibre ablations were achieved using a SIM scanner (Olympus) at 790 nm and 200 msec dwell time at 100% laser power on an Olympus FVMPE-RS upright multi-photon microscope equipped with a 25×/1.05 water immersion objective. Injury-responding macrophages were tracked using the manual tracking plugin in Fiji.
Cell ablation was carried out as previously described (Pisharath, H. & Parsons, M. J. in Zebrafish 133-143 (Springer, 2009)) with minor modifications. Larvae at the appropriate stage were incubated in 5-10 mM metronidazole (Mtz) (Sigma-Aldrich) in Ringer's solution and daily refreshed until experimental end point. Drug treatments were carried out by incubating 4 dpf needle stick injured larvae in 5 and 10 μM cenicriviroc (CVC) (Med Chem Express) and 5 and 10 μM maraviroc (MVC) (Med Chem Express) in Ringer's solution immediately post injury and refreshed daily.
The effect of drug treatment on laser ablation muscle injury was assayed by treating larvae with 5 μM CVC for 2 h prior to injury and with larvae being maintained in the drug until experimental end point. […] Chemokine supplementation experiments were carried out in plasticware coated with 0.1% bovine serum albumin (BSA) overnight (rinsed in Ringer's solution prior to use) to minimise protein adsorption. Larvae were treated with 57 nM recombinant human visfatin (hrNAMPT(1)) (PeproTech), 57 nM recombinant murine CCL8/MCP-2 (mrCCL8) (PeproTech) and combinations with Mtz and CVC.
Larvae: Labelling and detection was carried out as previously described (Nguyen, P. D. et al. Muscle stem cells undergo extensive clonal drift during tissue growth via Meox1-mediated induction of G2 cell-cycle arrest. Cell Stem Cell 21, 107-119. e106 (2017))^55 with minor alteration. 6 dpf/2 dpi larvae were pulsed with 2.5 nM EdU (Thermo Fisher) for 1h and chased for a further 1.5 h prior to fixation. Cell culture: Cells were incubated for 1 h in media supplemented with 10 μM EdU. Following Edu pulse, C2C12 cells were fixed immediately, while primary mouse myoblast co-cultures were rinsed in PBS, replaced with media and incubated for a further 2 h following which the cells were fixed. Cells were processed using the Click-iT™ EdU Alexa Fluro™ 647 imaging Kit (Thermo Fisher) following the manufacturer's protocol.

The mark [2] stands for this setting: single dose 0.5 μg in fibrin hydrogel, vs fibrin only.

With `O=C(NCC(=O)N1CC[C@H](N[C@H]2CC[C@@](O)(c3ccc(-c4ncccn4)cn3)CC2)C1)c1cccc(C(F)(F)F)c1` [PF-4136309, reference compound], the “effect on NAMPT-induced myoblast proliferation” value with C2C12 myoblasts (co-administration with NAMPT, 6 h) is on record as “does not hinder NAMPT's stimulatory effect on myoblast proliferation”. Also, the “effect on macrophage-stimulated satellite cell proliferation” value with PAX7+ satellite cells (MB+macrophage co-culture, 100 nM inhibitor) is given as “had no negative effect”. Besides, in the assay on PAX7+ satellite cells (with hrNAMPT, 100 nM inhibitor), the “effect on NAMPT-stimulated satellite cell proliferation” value is listed as “maintained”.

Consider “Nicotinamide phosphoribosyltransferase [NAMPT]”, for which the “centrally nucleated muscle fibres” value with rectus femoris muscle (6 days post treatment) was “significant increase the number of centrally nucleated de novo muscle fibres”. Further, the “muscle architecture / regenerated muscle area” value with rectus femoris muscle was “significantly increased the regenerated muscle area”; in the assay on rectus femoris muscle (listed as hrNAMPT), “able to fully restore muscle architecture”. In the assay with rectus femoris muscle (setting [2]), the “decrease in average fibrotic area” value was 34.76±9.32%. In addition, the “increase in average muscle area” value in the assay on rectus femoris muscle (setting [2]) stood at 3.276±0.4926 mm^2. In addition, the “satellite cell proliferation on supplementation in presence of macrophages” value with PAX7+ satellite cells (MB+macrophage co-culture) is listed as “did not increase satellite cell proliferation in the presence of macrophages”. The “satellite cell proliferation on supplementation” value with PAX7+ satellite cells is “enhanced proliferation; also recorded: stimulates proliferation of PAX7^+ satellite cells”; in the assay on PAX7+ satellite cells (listed as hrNAMPT), “able to increase the proliferation of satellite cells in MB and MB+3T3 culture conditions”. Moreover, the “wound site proliferation in macrophage-ablated larvae” value in assay [1] (5 mM Mtz added at 4 dpf/0 dpi) is recorded as “rescues the proliferation deficit generated by ablating macrophages; also recorded: rescues the proliferative deficit that occurs upon macrophage ablation; also recorded: functioned to rescue wound site proliferation in macrophage-ablated larvae”. The “wound site proliferation, NAMPT together with CVC” value in assay [1] (Ccr5 inhibited by CVC) is given as “failed to rescue the proliferation defect; also recorded: resistant to NAMPT mediated rescue; also recorded: failed to rescue the proliferation deficit when supplemented in conjunction with CVC”. Also, the “increase in wound site proliferation above control response in macrophage-ablated larvae” value in assay [1] (macrophages ablated with Mtz) was 10.96±3.55%. Moreover, the “wound site muscle stem cell proliferation” value in assay [1] (needle stab injury, agent alone) is reported as “specifically enhanced wound-resident muscle stem cell proliferation; also recorded: increases wound site proliferation in control settings”. Also, the “increase in muscle stem cell proliferation within the wound site vs control” value in assay [1] (needle stab injury, supplementation) is reported as 30.70±4.26%.

“mrCCL2: recombinant murine CCL2/MCP-1 (PeproTech), CCR2-specific ligand”: the “myoblast proliferation, factor added alone” value in the assay with C2C12 myoblasts (6 h in growth media) is “failed to increase proliferative rates beyond that of the control”.
